For assay [1], the target named is BRD4-1 (Homo sapiens (Human), UniProt O60885). In words: Bromodomain and Extraterminal Domain (BET) binding assay, BRD4-1. As to conditions: histone H4 peptide (1-21) K5/8/12/16Ac-biotin ligand; 20 nM protein, 20 nM ligand. As to the method:
(§1) The bromodomain binding assays were performed by Reaction Biology Corp., Malvern, Pa., USA (www.reactionbiology.com). The BET binding assays were conducted in 384 well microplates in assay buffer (50 mM HEPES-HCl, pH 7.5, 100 mM NaCl, 1 mg/ml BSA, 0.05% CHAPS, and 0.5% DMSO) with compounds added as DMSO stocks at a single concentration or with 10-point dose response titrations. BET protein or assay buffer were delivered to the appropriate wells of the microplate. Test compound was then delivered by acoustic technology via a Labcyte Echo550 liquid handler. The microplate was centrifuged for 5 min and pre-incubated for 30 min at RT with gentle shaking. The ligand (histone H4 peptide (1-21) K5/8/12/16Ac-biotin) was delivered and the microplate was again centrifuged for 5 min and allowed to incubate for 30 min at RT with gentle shaking. Donor beads were then added in the absence of light and the microplate was centrifuged and gently shaken. After 5 min, acceptor beads were added in the absence of light and the microplate was centrifuged and gently shaken in the dark for 60 min. The microplate was read using a Perkin Elmer EnSpire Alpha plate reader (λ Ex/λ Em=680/520-620 nm). Percent inhibition was calculated relative to positive and negative controls on a per plate basis. For titration experiments, IC50 values were determined by fitting the percent inhibition versus compound concentration.

Assay [2] deals with BRD4-2 (Homo sapiens (Human), UniProt O60885). Put plainly: Bromodomain and Extraterminal Domain (BET) binding assay, BRD4-2. The following applies: histone H4 peptide (1-21) K5/8/12/16Ac-biotin ligand; 130 nM protein, 70 nM ligand. As to the method: as §1
The test system of assay [3] is MV-4-11 human acute myeloid leukemia cell line. Put plainly: Cell viability assay in MV-4-11 cells (Cell Titer-Glo). Format: cell-based. As to conditions: MV4-11, 72 hrs incubation. As to the method: The effects of test compounds were studied in a cell viability assay in the MV-4-11 human acute myeloid leukemia cell line. The cells were harvested during the logarithmic growth period and counted. Cells were seeded at a count of 15000 cells per well/100 μl. After seeding, cells were incubated at 37° C. 5% CO2 for 1 hr. Cells were treated with test compounds at 8 concentrations within a desired concentration range (e.g. 5 nM-10 μM) for generation of dose response curves by preparing serial dilutions of the test compound in DMSO which were further diluted with culture medium and then added to each well. The plate was further incubated for another 72 hrs in a humidified incubator at 37° C. and 5% CO2. The assay was terminated by addition of Cell Titer-Glo reagent (Promega, Madison, Wis.) at ¼ the volume of total medium per well. Contents were mixed, the plate was incubated for 10 min at room temperature and luminescence was measured. Cell viability data were plotted using GraphPad Prism (GraphPad Software, Inc., San Diego, Calif.). In addition, a nonlinear regression model with a sigmoidal dose response and variable slope within GraphPad Prism was used to calculate the IC50 value of individual test compounds.
On the technique in general: Cellular ATP, detected with luciferase, serves as a proxy for viable cell number.

Assay [4] relates to IEC-6 rat intestinal epithelial cell line. Put plainly: Cell viability assay in IEC-6 cells (resazurin), potential toxicity to non-cancerous cells. Format: cell-based. On the procedure:
The effects of test compounds were also studied in the IEC-6 rat intestinal epithelial cell line to assess potential toxicity to non-cancerous cells. The cells were harvested during the logarithmic growth period and counted. In Protocol A, cells were seeded at a count of 3000 cells per well/100 μl in a 96-well plate. After seeding, cells were incubated at 37° C. 5% CO2 for 24 hr. Cells were treated with test compounds at 8 concentrations within a desired concentration range (e.g. 5 nM-10 μM) for generation of dose response curves by preparing serial dilutions of the test compound in DMSO which were further diluted with culture medium and then added to each well. The plate was further incubated for another 96 hrs in humidified incubator at 37° C. and 5% CO2. The assay was terminated by addition of resazurin (#R7017, Sigma). The plate was incubated for 4 hr at 37° C. 5% CO2 and fluorescence was measured using excitation and emission wavelengths of 535 and 590 nm, respectively. Cell viability data were plotted using GraphPad Prism (GraphPad Software, Inc., San Diego, Calif.). In addition, a nonlinear regression model with a sigmoidal dose response and variable slope within GraphPad Prism was used to calculate the IC50 value of individual test compounds. Protocol B was the same as Protocol A except that cells were seeded at a count of 4000 cells per well/100 μl in a 96-well plate, and the incubation with test compound was for 48 hrs instead of 96 hrs.

The mark [5] stands for this setting: Protocol B: 4000 cells per well, 48 hrs incubation with test compound, read-out: Protocol B IC50 (μM), cell viability in IEC-6 cells.
The mark [6] stands for this setting: Protocol A: 3000 cells per well, 96 hrs incubation with test compound, read-out: Protocol A IC50 (μM), cell viability in IEC-6 cells.

Where two headings read alike, the source gives them in different places.

A word on the IC50: it is the concentration that inhibits the measured activity by half. As to `Cn1cc(-c2cc(C(C)(C)O)ccc2Oc2ccc(F)cc2F)c2cc(C(=O)NC3CC3)sc2c1=O` [Compound 145, N-cyclopropyl-4-(2-(2,4-difluorophenoxy)-5-(2-hydroxypropan-2-yl)phenyl)-6-methyl-7-oxo-6,7-dihydrothieno[2,3-c]pyridine-2-carboxamide], the IC50 in assay [1] amounted to 601 nM; in assay [2], 7 nM; in assay [3] it was 0.245 µM; in assay [4] (setting [5]), 0.691 µM.
For `Cn1cc(-c2cc(C(C)(C)O)ccc2Oc2ccc(F)cc2F)c2cc(C(=O)N3CCCC(F)(F)C3)sc2c1=O` [Compound 23, 4-(2-(2,4-difluorophenoxy)-5-(2-hydroxypropan-2-yl)phenyl)-2-(3,3-difluoropiperidine-1-carbonyl)-6-methylthieno[2,3-c]pyridin-7(6H)-one], in that order: 1120 nM, 18 nM, 0.768 µM and 1.62 µM.
For `CCS(=O)(=O)Nc1ccc(Oc2c(C)cc(F)cc2C)c(-c2cn(C)c(=O)c3sc(-c4nnc(C)o4)cc23)c1` [Compound 10, N-(4-(4-fluoro-2,6-dimethylphenoxy)-3-(6-methyl-2-(5-methyl-1,3,4-oxadiazol-2-yl)-7-oxo-6,7-dihydrothieno[2,3-c]pyridin-4-yl)phenyl)ethanesulfonamide], in that order: 111 nM, 3.4 nM, 0.126 µM and 0.78 µM.
Consider `Cc1noc(-c2cc3c(-c4cc(C(C)(C)O)ccc4Oc4ccc(F)cc4F)cn(C)c(=O)c3s2)n1` [Compound 8, 4-(2-(2,4-difluorophenoxy)-5-(2-hydroxypropan-2-yl)phenyl)-6-methyl-2-(3-methyl-1,2,4-oxadiazol-5-yl)thieno[2,3-c]pyridin-7(6H)-one], for which the IC50 in assay [1] is 94 nM; in assay [2] it was 74 nM; in assay [3] it was 0.379 µM; in assay [4] (setting [6]), 0.156 µM; in assay [4] (setting [5]), 0.521 µM.
On the same counts, the results for `CCS(=O)(=O)Nc1ccc(Oc2c(C)cccc2C)c(-c2cn(C)c(=O)c3sc(-c4nnc(C)o4)cc23)c1` [Compound 4, N-(4-(2,6-dimethylphenoxy)-3-(6-methyl-2-(5-methyl-1,3,4-oxadiazol-2-yl)-7-oxo-6,7-dihydrothieno[2,3-c]pyridin-4-yl)phenyl)ethanesulfonamide] are 197 nM, 6 nM, 0.115 µM, 0.048 µM and 0.283 µM.
Consider `CCNC(=O)c1cc2c(-c3cc(C(C)(C)O)ccc3Oc3ccc(Cl)cc3Cl)cn(C)c(=O)c2s1` [Compound 2, 4-(2-(2,4-dichlorophenoxy)-5-(2-hydroxypropan-2-yl)phenyl)-N-ethyl-6-methyl-7-oxo-6,7-dihydrothieno[2,3-c]pyridine-2-carboxamide], for which the IC50 in assay [2] stood at 1 nM; in assay [3], 0.111 µM; in assay [4] (setting [6]) it was 0.061 µM.
Take `CCNC(=O)c1cc2c(-c3cc(NS(=O)(=O)CC)ccc3Oc3c(C)cccc3C)cn(C)c(=O)c2s1` [Compound 147, 4-(2-(2,6-dimethylphenoxy)-5-(ethylsulfonamido)phenyl)-N-ethyl-6-methyl-7-oxo-6,7-dihydrothieno[2,3-c]pyridine-2-carboxamide]: the IC50 in assay [1] was 299 nM; in assay [2], 1.8 nM; in assay [3] it was 0.047 µM; in assay [4] (setting [5]), 1.77 µM.
In the case of `Cn1cc(-c2cc(C(C)(C)O)ccc2Oc2ccc(F)cc2F)c2cc(C(=O)NCC(F)(F)F)sc2c1=O` [Compound 5, 4-(2-(2,4-difluorophenoxy)-5-(2-hydroxypropan-2-yl)phenyl)-6-methyl-7-oxo-N-(2,2,2-trifluoroethyl)-6,7-dihydrothieno[2,3-c]pyridine-2-carboxamide], the IC50 was 744 nM in assay [1], 18 nM in assay [2] and 0.597 µM in assay [3].
For `Cc1cc(F)cc(C)c1Oc1ccc(C(C)(C)O)cc1-c1cn(C)c(=O)c2sc(C(=O)NCc3ccccc3)cc12` [Compound 149, N-benzyl-4-(2-(4-fluoro-2,6-dimethylphenoxy)-5-(2-hydroxypropan-2-yl)phenyl)-6-methyl-7-oxo-6,7-dihydrothieno[2,3-c]pyridine-2-carboxamide], in that order: greater than 10000 nM, 103 nM and 1.5 µM.
As for `CCNC(=O)c1cc2c(-c3cc(C(C)(C)O)ccc3Oc3c(C)cc(F)cc3C)cn(C)c(=O)c2s1` [Compound 1, N-ethyl-4-(2-(4-fluoro-2,6-dimethylphenoxy)-5-(2-hydroxypropan-2-yl)phenyl)-6-methyl-7-oxo-6,7-dihydrothieno[2,3-c]pyridine-2-carboxamide], the IC50 in assay [1] was determined as 10100 nM; in assay [2], 2 nM; in assay [3] it was 0.131 µM; in assay [4] (setting [6]) it was 0.266 µM; in assay [4] (setting [5]), 4.91 µM.
Turning to `Cc1nnc(-c2cc3c(-c4cc(C(C)(C)O)ccc4Oc4ccc(F)cc4F)cn(C)c(=O)c3s2)o1` [Compound 12, 4-(2-(2,4-difluorophenoxy)-5-(2-hydroxypropan-2-yl)phenyl)-6-methyl-2-(5-methyl-1,3,4-oxadiazol-2-yl)thieno[2,3-c]pyridin-7(6H)-one], the IC50 in assay [1] came to 17 nM; in assay [2], 12.5 nM; in assay [3], 0.074 µM.
Turning to `Cc1nnc(-c2cc3c(-c4cc(C(C)(C)O)ccc4Oc4c(C)cc(F)cc4C)cn(C)c(=O)c3s2)o1` [Compound 13, 4-(2-(4-fluoro-2,6-dimethylphenoxy)-5-(2-hydroxypropan-2-yl)phenyl)-6-methyl-2-(5-methyl-1,3,4-oxadiazol-2-yl)thieno[2,3-c]pyridin-7(6H)-one], the IC50 in assay [1] turned out to be 4940 nM; in assay [2], 9 nM; in assay [3], 0.54 µM; in assay [4] (setting [5]), 2.5 µM.
Consider `CCS(=O)(=O)Nc1ccc(Oc2ccc(F)cc2F)c(-c2cn(C)c(=O)c3sc(-c4nc5ccccc5o4)cc23)c1` [Compound 158, N-(3-(2-(benzo[d]oxazol-2-yl)-6-methyl-7-oxo-6,7-dihydrothieno[2,3-c]pyridin-4-yl)-4-(2,4-difluorophenoxy)phenyl)ethanesulfonamide], for which the figures for the half-maximal inhibitory concentration (IC50) in assay [1], in assay [2] and in assay [3] were 103 nM, 196 nM and 0.56 µM, respectively.
As for `Cc1cc(F)cc(C)c1Oc1ccc(C(C)(C)O)cc1-c1cn(C)c(=O)c2sc(-c3nc4ccccc4[nH]3)cc12` [Compound 154, 2-(1H-benzo[d]imidazol-2-yl)-4-(2-(4-fluoro-2,6-dimethylphenoxy)-5-(2-hydroxypropan-2-yl)phenyl)-6-methylthieno[2,3-c]pyridin-7(6H)-one], the IC50 in assay [1] was greater than 10000 nM; in assay [2], 284 nM; in assay [3] it was 2.89 µM.
As to `CCNC(=O)c1cc2c(-c3cc(C(C)(C)O)ccc3Oc3ccc(F)cc3F)cn(C)c(=O)c2s1` [Compound 3, 4-(2-(2,4-difluorophenoxy)-5-(2-hydroxypropan-2-yl)phenyl)-N-ethyl-6-methyl-7-oxo-6,7-dihydrothieno[2,3-c]pyridine-2-carboxamide], the IC50 is 2050 nM in assay [1], less than 2 nM in assay [2], 0.074 µM in assay [3] and 0.089 µM in assay [4] (setting [6]).

The record behind these values is patent US11584756B2, “Heterocyclic compounds as BET inhibitors” (NUVATION BIO INC., priority 2019, dated 2023).
